Measurements: US12617771B2, “Diphenylpyrazole compound, and preparation method therefor and application thereof” (NORTHWEST A&F UNIVERSITY, priority 2021, dated 2026)

Assays:
Assay type in all cases: biochemical
[1] = biological target: Plutella xylostella GSTs; assay: Inhibition of total GSTs enzyme of Plutella xylostella (CDNB method)
Experimental: (§1) Experiment: About 50 mg of larvae/nymphs of nine major pests such as Plutella xylostella, Mythimna separata, Pyrausta nubilalis, Chilo suppressalis, Nilaparvata lugens, Spodoptera frugiperda, Helicoverpa armigera, Carposina sasakii, Spodoptera litura were taken, grounded in a mortar pre-cooled at −80° C., and then 1 mL of 100 mM sodium phosphate buffer (1 mM EDTA, pH 7.2) was added and fully homogenized. The homogenate was transferred to a 1.5 mL centrifuge tube at 4° C., and centrifuged at 14,000 g for 30 minutes, and the supernatant was transferred to a new centrifuge tube as the GSTs total enzyme. The protein concentrations of the above total enzymes were determined using the BCA method.
(§2) 100 μL of PBS buffer (100 mM, pH 7.2) containing 1 mM GSH was taken and placed in a 96-well plate, 5 μg of insect total GSTs enzymes and an appropriate concentration of compounds PXG1-PXG29 (29 compounds) of the present invention were added to each well, after uniformly mixing, and allowed to stand at 30° C. for 10 min. Then 100 μL of PBS buffer (100 mM, pH 7.2) containing 1 mM CDNB was added to each well. Immediately after mixing, the mixture was placed in a microplate reader to measure the absorbance at a wavelength of 340 nm (A 340) once every 1 min, the measurement was carried out continuously for 5 min, the light absorption values of each measuring point were recorded and the inhibition rate in vitro of the compounds with different concentrations against insects total GSTs enzymes were calculated. Each group of assays was repeated three times, and total GSTs enzymes inactivated at 100° C. for 5 min were used as negative controls, and GTX was used as positive controls. GraphPad Prism 5 software was used for analysis and calculation of IC50. Relative inhibition was calculated using the following formula:
(§3) [formula] • wherein, A340 is the change of A340 within 5 minutes for the control group, and A340t is the change of A340 within 5 minutes for the experimental group.

[2] = biological target: Spodoptera litura GSTs; assay: Inhibition of total GSTs enzyme of Spodoptera litura (CDNB method)
Experimental: as §1, §2, §3

[3] = biological target: Helicoverpa armigera GSTs; assay: Inhibition of total GSTs enzyme of Helicoverpa armigera (CDNB method)
Experimental: as §1, §2, §3

[4] = biological target: PxGSTσ1 (Plutella xylostella, UniProt Q6F436); assay: Inhibition of PxGSTσ1 recombinant protein; settings: read-out: 100 μM Inhibition rate %
Experimental: (§4) Experiment: 100 μL of PBS buffer (100 mM, pH 7.2) was taken and added to a 96-well plate, 1 μg of PxGSTs recombinant protein and an appropriate concentration of the compounds PXG1-PXG29 of the present invention were added to each well, after uniformly mixing, and allowed to stand at 30° C. for 10 min. Then 100 μL of PBS buffer (100 mM, pH 7.2) containing 1 mM CDNB and 1 mM GSH was successively added to each well. Immediately after mixing, the mixture was placed in a microplate reader to measure the absorbance at a wavelength of 340 nm (A340) once every 1 min, the measurement was continued for 5 min, the light absorption values of each measuring point were recorded and the inhibition rate in vitro of the compounds PXG1-PXG29 of the present invention with different concentrations against PxGSTs recombinant protein were calculated. Each group of assays was repeated three times, and PxGSTs recombinant protein inactivated at 100° C. for 5 min was used as negative control, and GTX was used as positive control. GraphPad Prism 5 software was used for analysis and calculation of IC50. Relative inhibition was calculated using the following formula:
(§5) [formula] • wherein, A340c is the change of A340 […] the control group, an A340t is the change of A340 within 5 minutes for the experimental group.

[5] = biological target: Pyrausta nubilalis GSTs; assay: Inhibition of total GSTs enzyme of Pyrausta nubilalis (CDNB method)
Experimental: as §1, §2, §3

[6] = biological target: Mythimna separata GSTs; assay: Inhibition of total GSTs enzyme of Mythimna separata (CDNB method)
Experimental: as §1, §2, §3

[7] = biological target: Chilo suppressalis GSTs; assay: Inhibition of total GSTs enzyme of Chilo suppressalis (CDNB method)
Experimental: as §1, §2, §3

[8] = biological target: PxGSTδ1 (Plutella xylostella, UniProt D7URW9); assay: Inhibition of PxGSTδ1 recombinant protein; settings: read-out: 100 μM Inhibition rate %
Experimental: as §4, §5

[9] = biological target: Carposina sasakii GSTs; assay: Inhibition of total GSTs enzyme of Carposina sasakii (CDNB method)
Experimental: as §1, §2, §3

[10] = biological target: PxGSTσ2 (Plutella xylostella, UniProt Q6F443); assay: Inhibition of PxGSTσ2 recombinant protein; settings: read-out: 100 μM Inhibition rate %
Experimental: as §4, §5

[11] = biological target: PxGSTε3 (Plutella xylostella, UniProt O77409); assay: Inhibition of PxGSTε3 recombinant protein; settings: read-out: 100 μM Inhibition rate %
Experimental: as §4, §5

[12] = biological target: Spodoptera frugiperda GSTs; assay: Inhibition of total GSTs enzyme of Spodoptera frugiperda (CDNB method)
Experimental: as §1, §2, §3

[13] = biological target: Nilaparvata lugens GSTs; assay: Inhibition of total GSTs enzyme of Nilaparvata lugens (CDNB method)
Experimental: as §1, §2, §3

Sequence of PxGSTε3 (O77409 entry or part of it): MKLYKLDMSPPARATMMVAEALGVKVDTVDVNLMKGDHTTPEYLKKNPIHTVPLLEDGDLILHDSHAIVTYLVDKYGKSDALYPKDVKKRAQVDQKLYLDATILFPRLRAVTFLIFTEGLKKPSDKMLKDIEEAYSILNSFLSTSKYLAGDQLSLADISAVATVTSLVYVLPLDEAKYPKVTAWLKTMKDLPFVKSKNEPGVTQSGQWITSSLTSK
Sequence of PxGSTδ1 (D7URW9 entry or part of it): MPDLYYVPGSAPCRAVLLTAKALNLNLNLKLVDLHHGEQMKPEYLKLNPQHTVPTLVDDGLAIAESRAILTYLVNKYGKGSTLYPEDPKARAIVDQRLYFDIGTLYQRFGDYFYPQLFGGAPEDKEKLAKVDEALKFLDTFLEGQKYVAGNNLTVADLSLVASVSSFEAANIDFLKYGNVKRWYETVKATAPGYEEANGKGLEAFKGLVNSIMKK
Sequence of PxGSTσ1 (Q6F436 entry or part of it): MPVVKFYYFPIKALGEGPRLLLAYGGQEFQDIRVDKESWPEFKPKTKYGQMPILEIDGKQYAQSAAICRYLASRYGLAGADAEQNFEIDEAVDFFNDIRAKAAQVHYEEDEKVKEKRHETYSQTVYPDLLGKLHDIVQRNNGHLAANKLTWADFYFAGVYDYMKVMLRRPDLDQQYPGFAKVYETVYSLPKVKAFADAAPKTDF
Sequence of PxGSTσ2 (Q6F443 entry or part of it): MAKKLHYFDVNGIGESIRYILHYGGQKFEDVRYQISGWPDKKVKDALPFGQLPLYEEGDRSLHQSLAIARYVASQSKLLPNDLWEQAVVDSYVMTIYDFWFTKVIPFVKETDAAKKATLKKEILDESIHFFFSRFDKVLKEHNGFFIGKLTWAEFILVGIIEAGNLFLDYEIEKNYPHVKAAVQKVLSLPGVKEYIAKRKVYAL

Structure (SMILES)	IC50 [1] [µM]	100 μM Inhibition rate % [1] [%]	IC50 [2] [µM]	100 μM Inhibition rate % [2] [%]	IC50 [3] [µM]	100 μM Inhibition rate % [3] [%]	inhibition at 100 µM [4] [%]	IC50 [5] [µM]	100 μM Inhibition rate % [5] [%]	IC50 [6] [µM]	100 μM Inhibition rate % [6] [%]	IC50 [7] [µM]	100 μM Inhibition rate % [7] [%]	inhibition at 100 µM [8] [%]	IC50 [9] [µM]	100 μM Inhibition rate % [9] [%]	inhibition at 100 µM [10] [%]	inhibition at 100 µM [11] [%]	IC50 [12] [µM]	100 μM Inhibition rate % [12] [%]	other results
CN(C)S(=O)(=O)c1cccc(C(=O)NNC(=O)c2cc(-c3ccccc3)nn2-c2ccccc2)c1 [PXG9, 3-[N′-(1,3-diphenyl-1H-pyrazol-5-yl-carbonyl) hydrazinocarbonyl]-N,N-dimethylphenyl-1-sulfonamide]	> 100	3.94	> 100	12.58	> 100	5.25	28.6	> 100	5.71	> 100	2.72	> 100	34.79	30.4	> 100	12.55	31.4	-3.88	> 100	5.56	IC50 [13]: > 100 µM; 100 μM Inhibition rate % [13]: −10.48%
COc1ccccc1OCC(=O)NNC(=O)c1cc(-c2ccccc2)nn1-c1ccccc1 [PXG18, N′-(1,3-diphenyl-1H-pyrazol-5-yl-carbonyl)-2-(2-methoxyphenoxy)acetohydrazide]	> 100	32.94	> 100	7.95	> 100	−3.02	31.7	> 100	23.84	> 100	−2.16	> 100	23.00	82	> 100	13.69	13.5	-2.47	> 100	28.67	IC50 [13]: > 100 µM; 100 μM Inhibition rate % [13]: 45.31%
COc1ccccc1CC(=O)NNC(=O)c1cc(-c2ccccc2)nn1-c1ccccc1 [PXG10, N′-(1,3-diphenyl-1H-pyrazol-5-yl-carbonyl)-2-(2-methoxyphenyl) acetohydrazide]	> 100	−17.71	> 100	3.87	> 100	9.75	29.4	> 100	−3.85	> 100	−2.50	> 100	5.85	91	> 100	32.54	19.2	2.03	> 100	20.93	IC50 [13]: > 100 µM; 100 μM Inhibition rate % [13]: 19.24%
O=C(NNC(=O)c1cc(-c2ccccc2)nn1-c1ccccc1)c1ccccc1 [PXG11, N′-(1,3-diphenyl-1H-pyrazol-5-yl-carbonyl) benzohydrazine]	> 100	22.90	> 100	24.52	> 100	8.09	60.7	> 100	23.84	> 100	31.76	> 100	54.79	35.3	> 100	76.09	22.6	-7.28	> 100	20.95	IC50 [13]: > 100 µM; 100 μM Inhibition rate % [13]: 8.16%
